Where a name gives a salt, the structure may show the parent alone.
Test: solubility by stirred slurry, salt concentration in solution by HPLC
Assay type: physicochemical
Conditions: 25 °C, thermodynamic from solid, after 8 days stirring at 25 degC, slurry in "a volume of solvent" (solvent not named)
Procedure: The solubility of a sample of the hydrochloride salt of the invention was determined by adding an amount of it to a volume of solvent with stirring so as to form a slurry. The slurry was stirred at 25 degC. The stirred slurry was tested at regular intervals (i.e. 1, 3, 6 and 8 days) until the concentration of the salt in solution was substantially constant. HPLC was used to determine the salt concentration in solution.

SMILES: COCC1C2CCC(CC1c1ccc(Cl)c(Cl)c1)N2 [salt of the invention, hydrochloride salt of (1R,2R,3S,5S)-3-(3,4-dichlorophenyl)-2-[(methyloxy)methyl]-8-azabicyclo[3.2.1]octane]
- solubility at 8 days: 438 mg/mL
